Measurements reported in ChEMBL document CHEMBL3393030, “Synthesis and properties of vitamin E analog-conjugated neomycin for delivery of RNAi drugs to liver cells” (Bioorg Med Chem Lett, 2015).

How the values were obtained:
[1] = Binding affinity to self-complementary RNA-12mer duplex (5'-rCGCGAAUUCGCG-3')2 (unknown origin) assessed as melting temperature by […] assay (reference value: 61 degC); details: Homo sapiens
[2] = Drug uptake in mouse HePa1-6 cells assessed as red signal with Cy3 conjugate compound; assay type: ADME, cell-based
RH7777 = experiment: Induction of RNAi activity in rat McA-RH7777 cells by LDLR assay; assay type: cell-based

| Tm [1] | Drug uptake [2] | SMILES | Activity (RH7777) |
| --- | --- | --- | --- |
| 64.2 °C |  | NC[C@@H]1O[C@H](O[C@H]2[C@@H](O)[C@H](O[C@@H]3[C@@H](O)[C@H](N)C[C@H](N)[C@H]3O[C@H]3O[C@H](CN)[C@@H](O)[C@H](O)[C@H]3N)O[C@@H]2CO)[C@H](N)[C@@H](O)[C@@H]1O |  |
| 72.8 °C | Active | CCCCCCCCCCCCCCCCOC(COC[C@]1(C)CCc2c(C)c(O)c(C)c(C)c2O1)OCc1cn(CCCCCCCCCCCCCCCCSC[C@H]2O[C@@H](O[C@@H]3[C@@H](O)[C@H](N)C[C@H](N)[C@H]3O[C@H]3O[C@H](CN)[C@@H](O)[C@H](O)[C@H]3N)[C@H](O)[C@@H]2O[C@H]2O[C@@H](CN)[C@@H](O)[C@H](O)[C@H]2N)nn1 (stereo partly drawn) | Toxic |
| 65.6 °C |  | CCCCCCCCCCCCCCCCCC(=O)Oc1c(C)c(C)c2c(c1C)CC[C@@](C)(CCCCCCCCCOCc1cn(CCCCCCCCCCCCCCCCSC[C@H]3O[C@@H](O[C@@H]4[C@@H](O)[C@H](N)C[C@H](N)[C@H]4O[C@H]4O[C@H](CN)[C@@H](O)[C@H](O)[C@H]4N)[C@H](O)[C@@H]3O[C@H]3O[C@@H](CN)[C@@H](O)[C@H](O)[C@H]3N)nn1)O2 |  |
| 66.8 °C | Active | CCCCCCCC/C=C/CCCCCCCC(=O)Oc1c(C)c(C)c2c(c1C)CC[C@@](C)(CCCCCCCCCOCc1cn(CCCCCCCCCCCCCCCCSC[C@H]3O[C@@H](O[C@@H]4[C@@H](O)[C@H](N)C[C@H](N)[C@H]4O[C@H]4O[C@H](CN)[C@@H](O)[C@H](O)[C@H]4N)[C@H](O)[C@@H]3O[C@H]3O[C@@H](CN)[C@@H](O)[C@H](O)[C@H]3N)nn1)O2 | Toxic |
